From patent US8663602B2, “Method for high-throughput screening of compounds and combinations of compounds for discovery and quantification of actions, particularly unanticipated therapeutic or toxic actions, in biological systems” (The Regents of the University of California, priority 2003, dated 2014)
“Also recorded” adds a separate entry of the source.

Legend:
[1] = Plasma liver enzymes in mice given griseofulvin; format: in vivo; settings: 1% dose; data not shown
liver cell = assay: Liver cell proliferation in mice during griseofulvin administration (2H2O labeling); format: in vivo; settings: 1% griseofulvin in chow (low dose, NOEL), 5 days
Description: Cell proliferation was measured as described, supra.

[2] = Tolerability of maintained 2H2O body water enrichment; format: in vivo, humans; settings: 1-10% of body water labeled, weeks or months; >100 people; rapid changes in enrichment prevented
From the text: Relatively high body water enrichments of ^2H2O (e.g., 1-10% of the total body water is labeled) may be achieved relatively inexpensively using the techniques of the invention. This water enrichment is relatively constant and stable as these levels are maintained for weeks or months in humans and in experimental animals without any evidence of toxicity. This finding in a large number of human subjects (>100 people) is contrary to previous concerns about vestibular toxicities at high doses of ^2H2O. The Applicant has discovered that as long as rapid changes in body water enrichment are prevented (e.g., by initial administration in small, divided doses), high body water enrichments of ^2H2O can be maintained with no toxicities. For example, the low cost of commercially available ^2H2O allows long-term maintenance of enrichments in the 1-5% range at relatively low expense (e.g., calculations reveal a lower cost for 2 months labeling at 2% ^2H2O enrichment, and thus 7-8% enrichment in the alanine precursor pool, than for 12 hours labeling of ^2H-leucine at 10% free leucine enrichment, and thus 7-8% enrichment in leucine precursor pool for that period).

[3] = Food intake and body weight of mice on 2H2O; format: in vivo; settings: 0.012 ml/gm injection then 4% 2H2O in drinking water
Description: Mice were injected with ^2H2O (deuterated water) 0.012 ml/gm. […] Twenty-one days following the start of ^2H2O administration, mice were fasted for four hours, anesthetized with isoflurane and exsanguinated via heart puncture.

neuroprogenitor cells = settings: chronic exposure to LPS; Ekdahl et al. 2003; cited from earlier work
neurons = assay: Neuron turnover (fractional replacement) in mice by 2H2O labeling and GC/MS of DNA from isolated neurons; format: in vivo
Description: Groups of mice (n=5/group) were given a bolus of ^2H2O (Spectra Isotopes, Columbia, Md.) to 5% ^2H2O in body water and were given 8% ^2H2O as drinking water. Mice were maintained on ^2H2O for 45 days, during which period they also received injections every other day of either lipopolysaccharide (LPS) (Sigma, St. Louis, Mo.) in saline at a dose of 1 or 4 mg/kg body weight, or no injection.
Mice were euthanized with carbon dioxide, and their brains were removed. Hippocampi were dissected out, trypsinized, and stained with tetanus toxoid (Ttx), a specific marker for neurons, and then stained with a FITC labeled anti-Ttx antibody (Roche, Basel Switzerland). […]

mammary epithelial cell = assay: Mammary epithelial cell (MEC) proliferation in intact and ovariectomized rats by 2H2O labeling, GC/MS; format: in vivo, Sprague-Dawley rats; settings: for MEC proliferation: all doses, treated and labeled for 7 days, in the presence or absence of estrogen; for MEC proliferation rates: even the lowest dose; for mammary epithelial cell proliferation: intact female rats and ovariectomized rats, very low doses
adipocytes = assay: Adipocyte proliferation in ob/ob mice by 2H2O labeling of adipose cell DNA; format: in vivo; settings: murine leptin 2 μg/day s.c. osmotic pump, 21 days 2H2O
From the text: Four week old, female, C57/bl6j mice (Jackson Labs Bar Harbor, […].) were studied: C57/bl6j ^+/? controls (con), ad libitum fed C57/bl6j^lep-/lep- (ob/ob), leptin treated ob/ob (ob-lep) and food restricted ob/ob (ob-r). Mice were housed individually in hanging wire cages and fed AIN 93 purified diets (Bio Serv, Frenchtown, N.J.). Mice were given 3 days to acclimate to the environment, after which mice grew normally. All treatments and interventions began 5 days prior to the start of labeling with ^2H2O.
Ob-lep mice received murine leptin subcutaneously at a dose of 2 μg/day (Amgen, Thousand Oaks Calif.) via a 28 day Alzet mini osmotic pump (Alza Corp. Palo Alto Calif.).
Mice were injected with ^2H2O (deuterated water) 0.012 ml/gm. […]
The frozen slurry of adipocytes was lyophilized, the dry weight of the sample was determined and then the samples were digested and DNA isolated as described elsewhere (Neese, R. A. et al. Advances in the Stable Isotope-Mass Spectrometric Measurement of DNA Synthesis and Cell Proliferation. Anal Biochem 298, 189-195. (2001)) using Quiagen DNeasy tissue kits. The yield of DNA from each sample was determined with a Pharmacia Biotec Genequant II spectrophotometer. […]
PTA samples were analyzed for incorporation of deuterium on a HP model 5973 MS with a 6890 GC and auto-sampler (Agilent, Palo Alto, Calif.). […]

COC1=CC(=O)C[C@@H](C)[C@]12Oc1c(Cl)c(OC)cc(OC)c1C2=O [griseofulvin]
plasma liver enzymes [1]: did not induce elevated levels of plasma liver enzymes
liver cell proliferation (liver cell): increased liver cell proliferation

[2H]O[2H] [^2H2O, deuterated water]
toxicity of maintained body water enrichment [2]: no toxicities
food intake or body weight [3]: no impact on food intake or body weight

lipopolysaccharide [LPS]
neurogenesis (neuroprogenitor cells): neurogenesis was observed to decrease
neuron turnover (fractional replacement of neurons) (neurons; LPS 1 or 4 mg/kg injected every other day, 45 days with 2H2O, vs control, p<0.05, dose dependent): statistically significant increase in neuron turnover; also recorded: turnover more rapidly
calculated fractional synthesis rate (f) of new neurons (neurons; after exposure to LPS, control approximately 7%): ~14%

O=C(c1ccc(OCCN2CCCCC2)cc1)c1c(-c2ccc(O)cc2)sc2cc(O)ccc12 [raloxifene]
MEC proliferation (mammary epithelial cell): Significant reductions of MEC proliferation
MEC proliferation rates (mammary epithelial cell): efficacious anti-proliferative agents
mammary epithelial cell proliferation (mammary epithelial cell): decrease in mammary epithelial cell proliferation

CC/C(=C(\c1ccccc1)c1ccc(OCCN(C)C)cc1)c1ccccc1 [tamoxifen]
MEC proliferation (mammary epithelial cell): Significant reductions of MEC proliferation
MEC proliferation rates (mammary epithelial cell): efficacious anti-proliferative agents
mammary epithelial cell proliferation (mammary epithelial cell): decrease in mammary epithelial cell proliferation

B1: leptin: murine leptin (Amgen) given subcutaneously via osmotic pump (protein, UniProt P41160 22-167, looked up)
Leptin: VPIQKVQDDTKTLIKTIVTRINDISHTQSVSAKQRVTGLDFIPGLHPILSLSKMDQTLAVYQQVLTSLPSQNVLQIANDLENLRDLLHLLAFSKSCSLPQTSGLQKPESLDGVLEASLYSTEVVALSRLQGSLQDILQQLDVSPEC
adipocyte proliferation (fat cell proliferation) (adipocytes): decrease in adipocyte proliferation
